Here are results for one substance from patent US7135193B2, “Liposome compositions of porphyrin photosensitizers” (QLT, Inc., priority 1992, dated 2006).

A short description of this data set: Chemical stability of liposomal BPD-MA: potency, degradation products and pH of the reconstituted solution on storage. The data set is classed as physicochemical. The following applies: cryodesiccated liposome formulation. How it is done:
The chemical stability of the constituted dosage form was followed by monitoring the potency, degradation products and pH of the reconstituted solution. The potency of the reconstituted parenteral dosage form was assessed by chromatography with potency calculated on as is basis.

“benzoporphyrin derivative monoacid [BPD-MA]”: the projected shelf life entry was “at least two years”. Moreover, under “room temperature”, the “period over which potency was maintained” value is given as “at least nine months”.
